PubChem BioAssay (NCI)
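In this assay, cells in 96-well plates receive the compound at five concentrations for 48 hours. Endpoints are linearly interpolated between the surrounding concentrations. TGI: total growth inhibition.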

tested on: NCI-H460 lung; experiment: NCI-60 cell line screen, 48 h

Compound	TGI
C[C@H]1[C@H](C)CC[C@]2(C)CC[C@]3(C)C(=C[C@@H](O)[C@@H]4[C@@]5(C)[C@H](O)[C@@H](O)[C@H](O)C(C)(C)[C@@H]5CC[C@]43C)[C@H]12	> 100 µM
CCC1c2[nH]c3ccccc3c2C[C@H]2C(=O)NC(COC(C)(C)C)C(=O)N12 (some centres not stated)	> 100 µM
CCOC(=O)CC1CCN(C(=O)c2ccccc2)C2Cc3c([nH]c4ccccc34)C12C[N+](=O)[O-] (configuration not stated)	> 100 µM
CC12CCC(C(=O)OC1=O)C2(C)C (configuration not stated)	> 100 µM
CN1CCOC1(C)CO (configuration not stated)	> 100 µM
CC1=CC(C2/C(=N/O)C=C(C)CC2(C)C)C(O)C(C)(C)C1 (configuration not stated)	43.1 µM
COC(=O)C1=C(C)NC(C)=C(C(=O)OC)C1c1ccc(/[N+]([O-])=C/c2ccccc2)cc1	> 100 µM
Cc1cc(C)cc(C(=N)c2ccccc2Cc2cccc3ccccc23)c1	29.5 µM
CCCCCC(C[N+]1(C)CCOCC1)C(=O)/C=C/c1ccccc1 (configuration not stated)	> 61.5 µM
CC1(C#N)CC(C)(C)C(/C=C2/CC(C)(C)C(/C=C3/OC(=N)CC3(C)C)=N2)=N1 (configuration not stated)	39.9 µM
CCOC(=O)CC1c2ccc(O)cc2OC(=O)C1c1ccc([N+](=O)[O-])cc1 (configuration not stated)	> 100 µM
CCOC(=O)C1(C(=O)OCC)CN(CC)CN(c2ccccc2)C1	> 100 µM

tested on: NCI-H522 lung; experiment: NCI-60 cell line screen, 48 h

Compound	TGI
CSC1=C(SC)SC(=C2SC3=C(SC(=C4SCCS4)S3)S2)S1	> 100 µM
CCN(CC)c1ccc2cc(-c3nnc(-c4ccccc4)o3)c(=O)oc2c1	> 100 µM
CC1=C(C(N)=O)C(c2ccncc2)C(C#N)=C2SCC(=O)N12 (configuration not stated)	> 100 µM
CC(=O)c1sc2c(c1OC(=O)c1cccs1)c(=O)n(-c1ccccc1)c(=S)n2-c1ccccc1	6.07 µM
C[C@]12CCC(=O)C=C1CC[C@@H]1C2CC[C@]2(C)c3nn(-c4ccc(F)cc4)nc3CC12 (some centres not stated)	> 100 µM
CN(C)C(=O)NCCN1CCCCCc2ccccc21	> 100 µM
CC(=O)Oc1ccccc1-c1cc2ccccc2oc1=O	> 100 µM
Clc1ccc(Cl)c(Nc2ccnc(SCc3ccccc3)n2)c1	> 100 µM
O=C(NCCCNC(=O)c1ccc2c(O)c(O)ccc2c1)c1ccc2c(O)c(O)ccc2c1	48.5 µM
O=C1/C(=C\c2ccc([N+](=O)[O-])o2)SC2N=C(COc3ccc(Cl)cc3)NN12 (configuration not stated)	4.81 µM
CO[C@H]1[C@@H](O)[C@@H](C)O[C@@H](O[C@H]2CC[C@@]3(C)[C@H](CC[C@@H]4[C@@H]3CC[C@]3(C)[C@@H](C5=CC(=O)OC5)[C@@H](OC(C)=O)C[C@]43O)C2)[C@@H]1O	0.0368 µM
O=C(C(=O)N1CCc2ccccc21)c1c[nH]c2ccccc12	> 10 µM
Cn1ccc(C(=O)NCCOCCNC(=O)c2ccn(C)c(=O)c2O)c(O)c1=O	> 100 µM
CC1=C(Br)C(Br)=C(C)S1=O	23.8 µM
N#CSc1nc[nH]c1C(N)=O	> 100 µM
COc1ccnc2c1C(=O)c1nc3ccccc3c3ccnc-2c13	0.262 µM

Compound	TGI
C=CCN1C[C@H](C)N([C@H](c2ccc(C(=O)N(CC)CCO)cc2)c2cccc(OC)c2)C[C@H]1C	> 100 µM
CCC1c2[nH]c3ccccc3c2C[C@H]2C(=O)NC(COC(C)(C)C)C(=O)N12 (some centres not stated)	> 100 µM
CCOC(=O)CC1CCN(C(=O)c2ccccc2)C2Cc3c([nH]c4ccccc34)C12C[N+](=O)[O-] (configuration not stated)	> 100 µM
CC12CCC(C(=O)OC1=O)C2(C)C (configuration not stated)	> 100 µM
CN1CCOC1(C)CO (configuration not stated)	> 100 µM
c1cc(-c2ncc(-c3ccc4c(c3)CCCO4)o2)ccn1	16.7 µM
COC(=O)C1=C(C)NC(C)=C(C(=O)OC)C1c1ccc(/[N+]([O-])=C/c2ccccc2)cc1	27.9 µM
CC(=O)OC1CC2c3cccc4c3C(CC2N(C)C1=O)CN4C(=O)c1ccccc1 (configuration not stated)	34.4 µM
COc1ccc2c3c1O[C@H]1C(O)CCC4(O)[C@@H](C2)NCC[C@]314 (some centres not stated)	> 100 µM
Cc1cc(C)cc(C(=N)c2ccccc2Cc2cccc3ccccc23)c1	24.4 µM
CCCCCC(C[N+]1(C)CCOCC1)C(=O)/C=C/c1ccccc1 (configuration not stated)	9.39 µM
CC1(C#N)CC(C)(C)C(/C=C2/CC(C)(C)C(/C=C3/OC(=N)CC3(C)C)=N2)=N1 (configuration not stated)	34 µM
COc1ccc(C[N+]23C(CC[C@H]2c2ccccc2)CC[C@H]3c2ccccc2)cc1 (some centres not stated)	45.4 µM
CCOC(=O)CC1c2ccc(O)cc2OC(=O)C1c1ccc([N+](=O)[O-])cc1 (configuration not stated)	66.5 µM
CCOC(=O)C1(C(=O)OCC)CN(CC)CN(c2ccccc2)C1	56.1 µM

tested on: OVCAR-8 ovarian; experiment: NCI-60 cell line screen, 48 h

Compound	TGI
CSC1=C(SC)SC(=C2SC3=C(SC(=C4SCCS4)S3)S2)S1	> 100 µM
CCN(CC)c1ccc2cc(-c3nnc(-c4ccccc4)o3)c(=O)oc2c1	98.4 µM
CC1=C(C(N)=O)C(c2ccncc2)C(C#N)=C2SCC(=O)N12 (configuration not stated)	> 100 µM
CC(=O)c1sc2c(c1OC(=O)c1cccs1)c(=O)n(-c1ccccc1)c(=S)n2-c1ccccc1	21.1 µM
C[C@]12CCC(=O)C=C1CC[C@@H]1C2CC[C@]2(C)c3nn(-c4ccc(F)cc4)nc3CC12 (some centres not stated)	> 100 µM
CN(C)C(=O)NCCN1CCCCCc2ccccc21	> 100 µM
CN(Nc1cc(=O)[nH]c(=O)[nH]1)c1ccccc1	> 100 µM
CC(=O)Oc1ccccc1-c1cc2ccccc2oc1=O	> 100 µM
Clc1ccc(Cl)c(Nc2ccnc(SCc3ccccc3)n2)c1	> 100 µM
CCOC(=O)C1=C(Nc2cccc(OC)c2)OCC1=O	> 100 µM
O=C(NCCCNC(=O)c1ccc2c(O)c(O)ccc2c1)c1ccc2c(O)c(O)ccc2c1	99.1 µM
O=C1/C(=C\c2ccc([N+](=O)[O-])o2)SC2N=C(COc3ccc(Cl)cc3)NN12 (configuration not stated)	10.2 µM
CO[C@H]1[C@@H](O)[C@@H](C)O[C@@H](O[C@H]2CC[C@@]3(C)[C@H](CC[C@@H]4[C@@H]3CC[C@]3(C)[C@@H](C5=CC(=O)OC5)[C@@H](OC(C)=O)C[C@]43O)C2)[C@@H]1O	0.152 µM
O=C(C(=O)N1CCc2ccccc21)c1c[nH]c2ccccc12	> 10 µM
Cn1ccc(C(=O)NCCOCCNC(=O)c2ccn(C)c(=O)c2O)c(O)c1=O	> 100 µM
CC1=C(Br)C(Br)=C(C)S1=O	> 100 µM
N#CSc1nc[nH]c1C(N)=O	> 100 µM
COc1ccnc2c1C(=O)c1nc3ccccc3c3ccnc-2c13	0.224 µM

Compound	TGI
CC(=O)N(C(=O)CC(=O)N/N=C\c1ccc(Br)c(N(CCC#N)CCC#N)c1)c1ccc(Cl)cc1	> 100 µM
C[C@H]1[C@H](C)CC[C@]2(C)CC[C@]3(C)C(=C[C@@H](O)[C@@H]4[C@@]5(C)[C@H](O)[C@@H](O)[C@H](O)C(C)(C)[C@@H]5CC[C@]43C)[C@H]12	> 100 µM
C=CCN1C[C@H](C)N([C@H](c2ccc(C(=O)N(CC)CCO)cc2)c2cccc(OC)c2)C[C@H]1C	> 100 µM
CCC1c2[nH]c3ccccc3c2C[C@H]2C(=O)NC(COC(C)(C)C)C(=O)N12 (some centres not stated)	> 100 µM
CCOC(=O)CC1CCN(C(=O)c2ccccc2)C2Cc3c([nH]c4ccccc34)C12C[N+](=O)[O-] (configuration not stated)	> 100 µM
CC12CCC(C(=O)OC1=O)C2(C)C (configuration not stated)	> 100 µM
CN1CCOC1(C)CO (configuration not stated)	> 100 µM
CC1=CC(C2/C(=N/O)C=C(C)CC2(C)C)C(O)C(C)(C)C1 (configuration not stated)	33.8 µM
c1cc(-c2ncc(-c3ccc4c(c3)CCCO4)o2)ccn1	94.9 µM
COC(=O)C1=C(C)NC(C)=C(C(=O)OC)C1c1ccc(/[N+]([O-])=C/c2ccccc2)cc1	46.2 µM
CC(=O)OC1CC2c3cccc4c3C(CC2N(C)C1=O)CN4C(=O)c1ccccc1 (configuration not stated)	48.8 µM
COc1ccc2c3c1O[C@H]1C(O)CCC4(O)[C@@H](C2)NCC[C@]314 (some centres not stated)	> 100 µM
Cc1cc(C)cc(C(=N)c2ccccc2Cc2cccc3ccccc23)c1	34.1 µM
CCCCCC(C[N+]1(C)CCOCC1)C(=O)/C=C/c1ccccc1 (configuration not stated)	39.3 µM
CC1(C#N)CC(C)(C)C(/C=C2/CC(C)(C)C(/C=C3/OC(=N)CC3(C)C)=N2)=N1 (configuration not stated)	74 µM
COc1ccc(C[N+]23C(CC[C@H]2c2ccccc2)CC[C@H]3c2ccccc2)cc1 (some centres not stated)	> 100 µM
CCOC(=O)CC1c2ccc(O)cc2OC(=O)C1c1ccc([N+](=O)[O-])cc1 (configuration not stated)	75.7 µM
CCOC(=O)C1(C(=O)OCC)CN(CC)CN(c2ccccc2)C1	47.4 µM

tested on: SK-MEL-28 melanoma; experiment: NCI-60 cell line screen, 48 h

Compound	TGI
CSC1=C(SC)SC(=C2SC3=C(SC(=C4SCCS4)S3)S2)S1	> 100 µM
CCN(CC)c1ccc2cc(-c3nnc(-c4ccccc4)o3)c(=O)oc2c1	> 100 µM
CC1=C(C(N)=O)C(c2ccncc2)C(C#N)=C2SCC(=O)N12 (configuration not stated)	> 100 µM
CC(=O)c1sc2c(c1OC(=O)c1cccs1)c(=O)n(-c1ccccc1)c(=S)n2-c1ccccc1	15.6 µM
C[C@]12CCC(=O)C=C1CC[C@@H]1C2CC[C@]2(C)c3nn(-c4ccc(F)cc4)nc3CC12 (some centres not stated)	> 100 µM
CN(C)C(=O)NCCN1CCCCCc2ccccc21	> 100 µM
CN(Nc1cc(=O)[nH]c(=O)[nH]1)c1ccccc1	> 100 µM
CC(=O)Oc1ccccc1-c1cc2ccccc2oc1=O	> 100 µM
Clc1ccc(Cl)c(Nc2ccnc(SCc3ccccc3)n2)c1	> 100 µM
CCOC(=O)C1=C(Nc2cccc(OC)c2)OCC1=O	> 100 µM
O=C(NCCCNC(=O)c1ccc2c(O)c(O)ccc2c1)c1ccc2c(O)c(O)ccc2c1	> 100 µM
O=C1/C(=C\c2ccc([N+](=O)[O-])o2)SC2N=C(COc3ccc(Cl)cc3)NN12 (configuration not stated)	17.9 µM
CO[C@H]1[C@@H](O)[C@@H](C)O[C@@H](O[C@H]2CC[C@@]3(C)[C@H](CC[C@@H]4[C@@H]3CC[C@]3(C)[C@@H](C5=CC(=O)OC5)[C@@H](OC(C)=O)C[C@]43O)C2)[C@@H]1O	> 50 µM
O=C(C(=O)N1CCc2ccccc21)c1c[nH]c2ccccc12	> 10 µM
Cn1ccc(C(=O)NCCOCCNC(=O)c2ccn(C)c(=O)c2O)c(O)c1=O	> 100 µM
CC1=C(Br)C(Br)=C(C)S1=O	41.9 µM
N#CSc1nc[nH]c1C(N)=O	> 100 µM
COc1ccnc2c1C(=O)c1nc3ccccc3c3ccnc-2c13	7.37 µM
CC(=O)N(C(=O)CC(=O)N/N=C\c1ccc(Br)c(N(CCC#N)CCC#N)c1)c1ccc(Cl)cc1	> 100 µM
C=CCN1C[C@H](C)N([C@H](c2ccc(C(=O)N(CC)CCO)cc2)c2cccc(OC)c2)C[C@H]1C	> 100 µM
CCC1c2[nH]c3ccccc3c2C[C@H]2C(=O)NC(COC(C)(C)C)C(=O)N12 (some centres not stated)	> 100 µM
CCOC(=O)CC1CCN(C(=O)c2ccccc2)C2Cc3c([nH]c4ccccc34)C12C[N+](=O)[O-] (configuration not stated)	> 100 µM
CC12CCC(C(=O)OC1=O)C2(C)C (configuration not stated)	> 100 µM
CC1=CC(C2/C(=N/O)C=C(C)CC2(C)C)C(O)C(C)(C)C1 (configuration not stated)	30.9 µM
c1cc(-c2ncc(-c3ccc4c(c3)CCCO4)o2)ccn1	> 100 µM
COC(=O)C1=C(C)NC(C)=C(C(=O)OC)C1c1ccc(/[N+]([O-])=C/c2ccccc2)cc1	36.8 µM
CC(=O)OC1CC2c3cccc4c3C(CC2N(C)C1=O)CN4C(=O)c1ccccc1 (configuration not stated)	77.1 µM
COc1ccc2c3c1O[C@H]1C(O)CCC4(O)[C@@H](C2)NCC[C@]314 (some centres not stated)	> 100 µM
